In article PMC10771525 (Communications Biology, 2024):
Where no end group is shown, it is not given here.

Legend:
DRD2S = DRD2S (Homo sapiens, UniProt P14416); conditions: reference agonist, CHO-K1, Arrestin
DRD4 = DRD4 (Homo sapiens, UniProt P21917); conditions: reference agonist, DRD4, CHO-K1, Arrestin
DRD2L = DRD2L (Homo sapiens, UniProt P14416); conditions: reference agonist, CHO-K1, Arrestin
ADCYAP1R1 = ADCYAP1R1 (Homo sapiens, UniProt P41586); conditions: reference agonist, ADCYAP1R1, CHO-K1, Arrestin
ADCYAP1R1, sequence (P41586 21-468): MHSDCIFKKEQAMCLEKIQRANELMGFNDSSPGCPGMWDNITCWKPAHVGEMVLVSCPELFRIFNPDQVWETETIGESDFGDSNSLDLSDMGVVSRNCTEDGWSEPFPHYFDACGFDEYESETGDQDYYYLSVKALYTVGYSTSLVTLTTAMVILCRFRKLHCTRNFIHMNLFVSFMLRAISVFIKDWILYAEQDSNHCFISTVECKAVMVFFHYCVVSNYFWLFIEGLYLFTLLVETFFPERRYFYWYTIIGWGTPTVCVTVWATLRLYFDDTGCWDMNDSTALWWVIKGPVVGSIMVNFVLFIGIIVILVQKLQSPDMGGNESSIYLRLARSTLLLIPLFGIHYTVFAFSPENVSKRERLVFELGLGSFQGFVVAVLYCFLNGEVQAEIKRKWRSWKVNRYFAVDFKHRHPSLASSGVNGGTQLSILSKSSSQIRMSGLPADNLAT

ADRA1B = ADRA1B (Homo sapiens, UniProt P35368); assay: GPCR panel (control), Arrestin, CHO-K1; format: cell-based; conditions: reference agonist
HRH2 = HRH2 (Homo sapiens, UniProt P25021); conditions: reference agonist, HRH2, CHO-K1, Arrestin
RXFP3 = molecular target: T1, RXFP3 (Homo sapiens, UniProt Q9NSD7); assay: GPCR panel (control), Arrestin, U2OS; format: cell-based; conditions: reference agonist
T1 construct: expressed in transfected cells; host or cells: U2OS

PTHR1 = molecular target: T2, PTHR1 (Homo sapiens, UniProt Q03431); assay: GPCR panel (control), Arrestin, CHO-K1; format: cell-based; conditions: reference agonist
T2 construct: expressed in transfected cells; host or cells: CHO-K1

EDNRB = molecular target: T3, EDNRB (Homo sapiens, UniProt P24530); assay: GPCR panel (control), Arrestin, CHO-K1; format: cell-based; conditions: reference agonist
T3 construct: expressed in transfected cells; host or cells: CHO-K1

SSTR5 = SSTR5 (Homo sapiens, UniProt P35346); conditions: reference agonist, SSTR5, CHO-K1, Arrestin
SSTR2 = SSTR2 (Homo sapiens, UniProt P30874); conditions: reference agonist, SSTR2, CHO-K1, Arrestin
SSTR2, sequence (P30874 whole entry): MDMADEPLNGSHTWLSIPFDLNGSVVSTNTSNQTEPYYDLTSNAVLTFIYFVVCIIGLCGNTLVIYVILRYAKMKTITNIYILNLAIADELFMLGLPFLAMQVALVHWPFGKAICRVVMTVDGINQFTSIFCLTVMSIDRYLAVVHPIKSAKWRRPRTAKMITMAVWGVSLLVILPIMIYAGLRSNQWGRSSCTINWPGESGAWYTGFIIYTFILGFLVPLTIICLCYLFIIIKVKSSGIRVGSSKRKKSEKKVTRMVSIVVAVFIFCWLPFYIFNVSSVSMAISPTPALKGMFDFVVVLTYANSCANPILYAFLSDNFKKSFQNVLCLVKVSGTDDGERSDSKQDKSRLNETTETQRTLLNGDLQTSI

OXTR = molecular target: T4, OXTR (Homo sapiens, UniProt P30559); assay: GPCR panel (control), Arrestin, CHO-K1; format: cell-based; conditions: reference agonist
T4 construct: expressed in transfected cells; host or cells: CHO-K1

CRHR2 = molecular target: T5, CRHR2 (Homo sapiens, UniProt Q13324); assay: GPCR panel (control), Arrestin, CHO-K1; format: cell-based; conditions: reference agonist
T5 construct: expressed in transfected cells; host or cells: CHO-K1

PPYR1 (NPY4) = molecular target: T6, PPYR1 (NPY4) (Homo sapiens, UniProt P50391); assay: GPCR panel (control), Arrestin, CHO-K1; format: cell-based; conditions: reference agonist
T6 construct: expressed in transfected cells; host or cells: CHO-K1

F2RL3 = molecular target: T7, F2RL3 (Homo sapiens, UniProt Q96RI0); assay: GPCR panel (control), Arrestin, CHO-K1; format: cell-based; conditions: reference agonist
T7 construct: expressed in transfected cells; host or cells: CHO-K1
T7 sequence (Q96RI0 18-385): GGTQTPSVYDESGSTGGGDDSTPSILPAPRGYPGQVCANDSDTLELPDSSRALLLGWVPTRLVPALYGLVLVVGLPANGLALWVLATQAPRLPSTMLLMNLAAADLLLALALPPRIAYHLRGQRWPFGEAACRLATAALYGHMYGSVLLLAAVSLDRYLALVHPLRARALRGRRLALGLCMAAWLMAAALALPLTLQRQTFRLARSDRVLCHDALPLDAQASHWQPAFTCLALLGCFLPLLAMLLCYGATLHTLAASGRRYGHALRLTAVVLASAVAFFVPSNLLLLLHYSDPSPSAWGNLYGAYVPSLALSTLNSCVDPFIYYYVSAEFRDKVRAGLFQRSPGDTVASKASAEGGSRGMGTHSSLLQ

HSR1A = HSR1A (Homo sapiens, UniProt Q92847); conditions: reference agonist, U2OS, Arrestin
HSR1A, sequence (Q92847 whole entry): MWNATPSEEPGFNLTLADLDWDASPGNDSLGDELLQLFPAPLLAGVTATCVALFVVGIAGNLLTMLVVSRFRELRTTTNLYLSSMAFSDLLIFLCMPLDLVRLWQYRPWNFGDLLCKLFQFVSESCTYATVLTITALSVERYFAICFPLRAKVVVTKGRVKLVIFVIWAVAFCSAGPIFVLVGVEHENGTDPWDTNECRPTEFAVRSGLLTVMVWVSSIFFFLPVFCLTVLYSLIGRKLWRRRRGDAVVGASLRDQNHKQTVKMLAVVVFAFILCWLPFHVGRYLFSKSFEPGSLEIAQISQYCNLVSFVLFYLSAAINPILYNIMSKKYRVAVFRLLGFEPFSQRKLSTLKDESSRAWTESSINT

GLP1R = GLP1R (Homo sapiens, UniProt P43220); conditions: reference agonist, CHO-K1, Arrestin
GLP1R, sequence (P43220 24-463): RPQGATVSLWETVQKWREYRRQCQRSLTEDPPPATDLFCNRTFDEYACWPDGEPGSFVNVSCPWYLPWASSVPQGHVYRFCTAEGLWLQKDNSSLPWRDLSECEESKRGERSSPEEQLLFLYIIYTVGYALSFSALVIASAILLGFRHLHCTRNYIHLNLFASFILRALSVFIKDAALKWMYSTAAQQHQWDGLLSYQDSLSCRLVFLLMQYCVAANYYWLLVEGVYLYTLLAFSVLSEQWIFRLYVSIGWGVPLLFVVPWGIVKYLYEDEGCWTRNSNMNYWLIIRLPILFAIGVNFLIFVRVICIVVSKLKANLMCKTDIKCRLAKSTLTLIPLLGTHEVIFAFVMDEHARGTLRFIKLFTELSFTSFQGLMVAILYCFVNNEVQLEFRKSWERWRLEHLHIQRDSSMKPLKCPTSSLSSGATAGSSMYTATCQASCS

GPR120 = GPR120 (Homo sapiens, UniProt Q5NUL3); assay: GPCR panel (control), Arrestin, CHO-K1; format: cell-based; conditions: reference agonist
GPR120, sequence (Q5NUL3 whole entry): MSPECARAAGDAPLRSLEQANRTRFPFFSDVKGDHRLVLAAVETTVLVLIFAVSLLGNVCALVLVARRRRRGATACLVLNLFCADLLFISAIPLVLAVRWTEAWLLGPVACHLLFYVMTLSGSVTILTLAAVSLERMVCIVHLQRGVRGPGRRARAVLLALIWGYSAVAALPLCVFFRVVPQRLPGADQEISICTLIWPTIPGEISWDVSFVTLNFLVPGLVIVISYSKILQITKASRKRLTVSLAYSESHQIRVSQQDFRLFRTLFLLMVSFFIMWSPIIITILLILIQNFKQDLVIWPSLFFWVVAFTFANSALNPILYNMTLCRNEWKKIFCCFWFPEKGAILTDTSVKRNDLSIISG

BDKRB2 = molecular target: T8, BDKRB2 (Homo sapiens, UniProt P30411); assay: GPCR panel (control), Arrestin, CHO-K1; format: cell-based; conditions: reference agonist
T8 construct: expressed in transfected cells; host or cells: CHO-K1

CHRM5 = CHRM5 (Homo sapiens, UniProt P08912); assay: GPCR panel (control), Arrestin, CHO-K1; format: cell-based; conditions: reference agonist
CHRM5, sequence (P08912 whole entry): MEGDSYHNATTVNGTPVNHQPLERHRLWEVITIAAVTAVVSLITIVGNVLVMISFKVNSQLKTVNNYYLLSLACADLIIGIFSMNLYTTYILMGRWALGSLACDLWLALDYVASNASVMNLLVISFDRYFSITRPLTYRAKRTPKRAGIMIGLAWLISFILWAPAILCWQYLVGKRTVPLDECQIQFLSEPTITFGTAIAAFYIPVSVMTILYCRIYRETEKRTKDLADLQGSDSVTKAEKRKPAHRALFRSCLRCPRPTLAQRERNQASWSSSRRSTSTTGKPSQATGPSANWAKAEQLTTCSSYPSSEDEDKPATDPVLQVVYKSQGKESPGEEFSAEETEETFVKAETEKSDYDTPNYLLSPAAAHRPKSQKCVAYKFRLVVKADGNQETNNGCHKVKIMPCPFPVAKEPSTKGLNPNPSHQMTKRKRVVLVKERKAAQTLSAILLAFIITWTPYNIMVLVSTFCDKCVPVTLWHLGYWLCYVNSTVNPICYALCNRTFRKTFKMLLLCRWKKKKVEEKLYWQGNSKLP

CHRM2 = CHRM2 (Homo sapiens, UniProt P08172); conditions: reference agonist, CHRM2, CHO-K1, Arrestin
CHRM4 = CHRM4 (Homo sapiens, UniProt P08173); assay: GPCR panel (control), Arrestin, CHO-K1; format: cell-based; conditions: reference agonist
SCTR = molecular target: T9, SCTR (Homo sapiens, UniProt P47872); assay: GPCR panel (control), Arrestin, CHO-K1; format: cell-based; conditions: reference agonist
T9 construct: expressed in transfected cells; host or cells: CHO-K1

TACR3 = molecular target: T10, TACR3 (Homo sapiens, UniProt P29371); assay: GPCR panel (control), Arrestin, CHO-K1; format: cell-based; conditions: reference agonist
T10 construct: expressed in transfected cells; host or cells: CHO-K1

UTR2 = molecular target: T11, UTR2 (Homo sapiens, UniProt Q9UKP6); assay: GPCR panel (control), Arrestin, CHO-K1; format: cell-based; conditions: reference agonist
T11 construct: expressed in transfected cells; host or cells: CHO-K1

HCRTR1 = molecular target: T12, HCRTR1 (Homo sapiens, UniProt O43613); assay: GPCR panel (control), Arrestin, CHO-K1; format: cell-based; conditions: reference agonist
T12 construct: expressed in transfected cells; host or cells: CHO-K1

F2R = molecular target: T13, F2R (Homo sapiens, UniProt P25116); assay: GPCR panel (control), Arrestin, CHO-K1; format: cell-based; conditions: reference agonist
T13 construct: expressed in transfected cells; host or cells: CHO-K1

PTHR2 = molecular target: T14, PTHR2 (Homo sapiens, UniProt P49190); assay: GPCR panel (control), Arrestin, CHO-K1; format: cell-based; conditions: reference agonist
T14 construct: expressed in transfected cells; host or cells: CHO-K1

PTGER3 = PTGER3 (Homo sapiens, UniProt P43115); assay: GPCR panel (control), Arrestin, CHO-K1; format: cell-based; conditions: reference agonist
PTGER2 = PTGER2 (Homo sapiens, UniProt P43116); assay: GPCR panel (control), Arrestin, CHO-K1; format: cell-based; conditions: reference agonist
PTGER4 = PTGER4 (Homo sapiens, UniProt P35408); assay: GPCR panel (control), Arrestin, HEK-293; format: cell-based; conditions: reference agonist, PTGER4, HEK-293, Arrestin
PTGER4, sequence (P35408 whole entry): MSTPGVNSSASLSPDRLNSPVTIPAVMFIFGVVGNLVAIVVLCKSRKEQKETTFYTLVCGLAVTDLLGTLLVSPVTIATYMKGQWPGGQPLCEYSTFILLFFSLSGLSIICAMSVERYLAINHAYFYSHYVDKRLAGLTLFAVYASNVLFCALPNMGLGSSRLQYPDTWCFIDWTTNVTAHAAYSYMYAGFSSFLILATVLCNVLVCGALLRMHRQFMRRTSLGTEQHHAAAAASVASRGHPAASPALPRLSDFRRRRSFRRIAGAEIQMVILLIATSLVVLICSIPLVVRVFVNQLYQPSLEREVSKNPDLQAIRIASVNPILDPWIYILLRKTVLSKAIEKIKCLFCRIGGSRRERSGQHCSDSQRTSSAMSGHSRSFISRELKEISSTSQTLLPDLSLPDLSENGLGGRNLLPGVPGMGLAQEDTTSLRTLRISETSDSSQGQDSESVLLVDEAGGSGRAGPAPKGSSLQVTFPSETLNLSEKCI

CALCR + RAMP3 = CALCR + RAMP3 (Homo sapiens, UniProt O60896+P30988); conditions: reference agonist, CALCR + RAMP3, CHO-K1, Arrestin
CALCR + RAMP2 = CALCR + RAMP2 (Homo sapiens, UniProt O60895+P30988); conditions: reference agonist, CALCR + RAMP2, CHO-K1, Arrestin
CALCR = CALCR (Homo sapiens, UniProt P30988); conditions: reference agonist, U2OS, Arrestin
EDNRA = EDNRA (Homo sapiens, UniProt P25101); conditions: reference agonist, CHO-K1, Arrestin
CNR1 = CNR1 (Homo sapiens, UniProt P21554); conditions: reference agonist, CNR1, CHO-K1, Arrestin
CNR2 = CNR2 (Homo sapiens, UniProt P34972); conditions: reference agonist, CNR2, CHO-K1, Arrestin
CNR2, sequence (P34972 whole entry): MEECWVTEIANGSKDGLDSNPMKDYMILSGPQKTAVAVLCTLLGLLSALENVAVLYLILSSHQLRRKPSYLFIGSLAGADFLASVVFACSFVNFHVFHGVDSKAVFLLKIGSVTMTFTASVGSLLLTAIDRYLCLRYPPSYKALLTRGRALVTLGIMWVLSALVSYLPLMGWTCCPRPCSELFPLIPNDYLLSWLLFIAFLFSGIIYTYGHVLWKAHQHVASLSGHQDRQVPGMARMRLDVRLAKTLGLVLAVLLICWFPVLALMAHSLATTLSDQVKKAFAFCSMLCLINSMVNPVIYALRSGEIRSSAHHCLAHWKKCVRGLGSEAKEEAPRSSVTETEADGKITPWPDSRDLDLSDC

FPR1 = molecular target: T15, FPR1 (Homo sapiens, UniProt P21462); assay: GPCR panel (control), Arrestin, CHO-K1; format: cell-based; conditions: reference agonist
T15 construct: expressed in transfected cells; host or cells: CHO-K1

FPRL1 = molecular target: T16, FPRL1 (Homo sapiens, UniProt P25090); assay: GPCR panel (control), Arrestin, CHO-K1; format: cell-based; conditions: reference agonist
T16 construct: expressed in transfected cells; host or cells: CHO-K1
T16 sequence (P25090 whole entry): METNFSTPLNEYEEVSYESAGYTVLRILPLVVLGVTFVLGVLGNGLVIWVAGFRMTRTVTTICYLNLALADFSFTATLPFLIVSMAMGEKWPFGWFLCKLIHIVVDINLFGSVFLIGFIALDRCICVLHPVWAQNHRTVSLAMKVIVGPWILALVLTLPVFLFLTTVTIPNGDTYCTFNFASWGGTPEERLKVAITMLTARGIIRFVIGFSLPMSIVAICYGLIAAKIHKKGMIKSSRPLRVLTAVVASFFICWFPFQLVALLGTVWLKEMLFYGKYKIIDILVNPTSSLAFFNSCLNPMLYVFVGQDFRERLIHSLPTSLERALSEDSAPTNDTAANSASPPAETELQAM

F2RL1 = molecular target: T17, F2RL1 (Homo sapiens, UniProt P55085); assay: GPCR panel (control), Arrestin, U2OS; format: cell-based; conditions: reference agonist
T17 construct: expressed in transfected cells; host or cells: U2OS
T17 sequence (P55085 26-397): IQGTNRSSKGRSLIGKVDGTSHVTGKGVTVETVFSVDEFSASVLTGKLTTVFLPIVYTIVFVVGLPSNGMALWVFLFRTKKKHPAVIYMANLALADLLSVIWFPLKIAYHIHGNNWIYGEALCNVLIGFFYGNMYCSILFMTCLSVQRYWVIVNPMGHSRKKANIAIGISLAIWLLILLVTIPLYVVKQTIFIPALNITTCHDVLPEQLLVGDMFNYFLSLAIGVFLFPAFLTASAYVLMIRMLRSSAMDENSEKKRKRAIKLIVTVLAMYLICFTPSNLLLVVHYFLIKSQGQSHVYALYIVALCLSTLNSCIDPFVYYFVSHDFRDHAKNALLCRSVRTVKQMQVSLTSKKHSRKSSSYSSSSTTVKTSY

CCR9 = assay: GPCR panel (control), Arrestin, CHO-K1; format: cell-based, human; conditions: reference agonist

DRD4, sequence (P21917 whole entry): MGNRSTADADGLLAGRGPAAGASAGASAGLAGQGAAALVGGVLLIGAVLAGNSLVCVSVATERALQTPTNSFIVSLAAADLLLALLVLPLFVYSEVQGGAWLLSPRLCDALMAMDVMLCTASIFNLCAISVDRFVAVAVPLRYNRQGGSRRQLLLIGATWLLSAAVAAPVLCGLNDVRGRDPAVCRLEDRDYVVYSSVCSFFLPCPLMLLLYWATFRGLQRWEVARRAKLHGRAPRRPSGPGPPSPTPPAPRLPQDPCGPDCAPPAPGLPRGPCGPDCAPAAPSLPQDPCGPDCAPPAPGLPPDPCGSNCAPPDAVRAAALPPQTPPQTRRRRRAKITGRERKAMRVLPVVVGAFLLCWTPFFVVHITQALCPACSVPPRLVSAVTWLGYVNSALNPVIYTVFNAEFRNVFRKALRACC

NCCc1ccc(O)c(O)c1 [Dopamine]
EC80 (DRD2S): 5.4 µM
EC80 (DRD4): 21 µM
EC80 (DRD2L): 18 µM

PACAP-27
EC80 (ADCYAP1R1): 0.14 µM

CNC[C@H](O)c1cccc(O)c1 [Phenylephrine]
EC80 (ADRA1B): 10 µM

NCCc1c[nH]cn1 [Histamine]
EC80 (HRH2): 110 µM

Relaxin-3
EC80 (RXFP3): 3.1 µM

PTH(1-34)
EC80 (PTHR1): 0.28 µM

Endothelin-3
EC80 (EDNRB): 0.26 µM

Somatostatin 28
EC80 (SSTR5): 1.3 µM
EC80 (SSTR2): 0.093 µM

CC[C@H](C)[C@@H]1NC(=O)[C@H](Cc2ccc(O)cc2)NC(=O)[C@@H](N)CSSC[C@@H](C(=O)N2CCC[C@H]2C(=O)N[C@@H](CC(C)C)C(=O)NCC(N)=O)NC(=O)[C@H](CC(N)=O)NC(=O)[C@H](CCC(N)=O)NC1=O [Oxytocin]
EC80 (OXTR): 0.28 µM

Sauvagine
EC80 (CRHR2): 0.46 µM

Pancreatic polypeptide
EC80 (PPYR1 (NPY4)): 0.062 µM

AYPGKF-NH2
EC80 (F2RL3): 370 µM

Ghrelin
EC80 (HSR1A): 0.38 µM

Exendin-4
EC80 (GLP1R): 0.24 µM

O=C(O)CCc1ccc(NCc2cccc(Oc3ccccc3)c2)cc1 [GW9508]
EC80 (GPR120): 570 µM

RPPGFSPFR [Bradykinin]
EC80 (BDKRB2): 0.035 µM

CC(=O)OCC[N+](C)(C)C [Acetylcholine]
EC80 (CHRM5): 150 µM
EC80 (CHRM2): 230 µM
EC80 (CHRM4): 200 µM

Secretin
EC80 (SCTR): 0.074 µM

CSCC[C@H](NC(=O)[C@H](CC(C)C)NC(=O)CNC(=O)[C@H](Cc1ccccc1)NC(=O)[C@H](Cc1ccccc1)NC(=O)[C@H](CCC(N)=O)NC(=O)[C@H](CCC(N)=O)NC(=O)[C@@H]1CCCN1C(=O)[C@H](CCCCN)NC(=O)[C@@H]1CCCN1C(=O)[C@@H](N)CCCN=C(N)N)C(N)=O [Substance P]
EC80 (TACR3): 0.92 µM

CC(C)[C@H](NC(=O)[C@@H]1CSSC[C@H](NC(=O)[C@H](CC(=O)O)NC(=O)[C@@H]2CCCN2C(=O)[C@@H](NC(=O)[C@@H](N)CCC(=O)O)[C@@H](C)O)C(=O)N[C@@H](Cc2ccccc2)C(=O)N[C@@H](Cc2c[nH]c3ccccc23)C(=O)N[C@@H](CCCCN)C(=O)N[C@@H](Cc2ccc(O)cc2)C(=O)N1)C(=O)O [Urotensin II]
EC80 (UTR2): 0.031 µM

Orexin A
EC80 (HCRTR1): 0.52 µM

TFLLR-NH2
EC80 (F2R): 1300 µM

TIP-39
EC80 (PTHR2): 0.13 µM

CCCCC[C@H](O)/C=C/[C@H]1[C@H](O)CC(=O)[C@@H]1C/C=C\CCCC(=O)O [Prostaglandin E2]
EC80 (PTGER3): 0.98 µM
EC80 (PTGER2): 42 µM
EC80 (PTGER4): 0.14 µM

Calcitonin
EC80 (CALCR + RAMP3): 8.9 µM
EC80 (CALCR + RAMP2): 0.44 µM
EC80 (CALCR): 1.6 µM

Endothelin-1
EC80 (EDNRA): 0.19 µM

CCCCCCC(C)(C)c1ccc([C@@H]2C[C@H](O)CC[C@H]2CCCO)c(O)c1 [CP55940]
EC80 (CNR1): 0.17 µM
EC80 (CNR2): 0.14 µM

WKYMVm-NH2
EC80 (FPR1): 0.62 µM
EC80 (FPRL1): 0.067 µM

SLIGRL-NH2
EC80 (F2RL1): 24 µM

B1: CCL25 (protein, UniProt O15444 24-150, looked up)
C-C motif chemokine 25: QGVFEDCCLAYHYPIGWAVLRRAWTYRIQEVSGSCNLPAAIFYLPKRHRKVCGNPKSREVQRAMKLLDARNKVFAKLHHNTQTFQAGPHAVKKLSSGNSKLSSSKFSNPISSSKRNVSLLISANSGL
EC80 (CCR9): 14 µM
